Data set [1] concerns Trypanosoma cruzi. The data set is described as follows: Antitrypanosomal activity against intracellular Trypanosoma cruzi amastigote assessed as reduction in parasite growth. In kind it is functional, organism-based.
Data set [2] concerns Trypanosoma brucei. Briefly: Antitrypanosomal activity against bloodstream form of Trypanosoma brucei assessed as parasite growth inhibition. The class given is functional, organism-based.
Data set [3] relates to Leishmania infantum. The data set is described as follows: Antileishmanial activity against amastigote stage of Leishmania infantum. The class given is functional, organism-based.
A short description of data set [4]: Selectivity index, ratio of IC50 for cytotoxicity against human MRC5 cells to IC50 for antitrypanosomal activity against bloodstream form of Trypanosoma brucei. In kind it is toxicity, cell-based. Conditions: read-out: Ratio IC50.
Data set [5] in a line: Selectivity index, ratio of IC50 for cytotoxicity against human MRC5 cells to IC50 for antitrypanosomal activity against intracellular Trypanosoma cruzi amastigote. In kind it is toxicity, cell-based. Conditions: read-out: Ratio IC50.
The nature of data set [6]: Selectivity index, ratio of IC50 for cytotoxicity against human MRC5 cells to IC50 for antileishmanial activity against amastigote stage of Leishmania infantum. Conditions: read-out: Ratio IC50. In kind it is toxicity, cell-based.
In data set [7] the test system is Leishmania donovani. Briefly: Antileishmanial activity against amastigote form of Leishmania donovani assessed as parasite growth inhibition. The class given is functional, organism-based.
For data set [8], the system named is Trypanosoma cruzi. The data set is described as follows: Antitrypanosomal activity against Trypanosoma cruzi amastigote. The class given is functional, organism-based. The settings on record: Trypanosoma cruzi.
Data set [9] relates to Trypanosoma brucei rhodesiense. The data set is described as follows: Antitrypanosomal activity against Trypanosoma brucei rhodesiense bloodstream form.
Data set [10] relates to Trypanosoma brucei. Briefly: Antitrypanosomal activity against Trypanosoma brucei. The class given is functional, organism-based.
The test system of data set [11] is Trypanosoma cruzi. The data set is described as follows: Antitrypanosomal activity against epimastigote form of Trypanosoma cruzi assessed as reduction in parasite growth. The class given is functional, organism-based.
In data set [12] the test system is Leishmania major. The data set is described as follows: Antileishmanial activity against Leishmania major promastigotes assessed as parasite growth inhibition. In kind it is functional, organism-based.
Data set [13] relates to Trypanosoma brucei brucei. Briefly: Antitrypanosomal activity against Trypanosoma brucei brucei. The class given is functional, organism-based.
A short description of data set [14]: Selectivity index, ratio of EC50 for cytotoxicity against African green monkey Vero cells to EC50 for antitrypanosomal activity against Trypanosoma brucei brucei. Conditions: read-out: Ratio EC50. The class given is toxicity, cell-based.
A short description of data set [15]: Selectivity index, ratio of EC50 for cytotoxicity against African green monkey Vero cells to EC50 for antitrypanosomal activity against epimastigote form of Trypanosoma cruzi. In kind it is toxicity, cell-based. Conditions: read-out: Ratio EC50.
A short description of data set [16]: Selectivity index, ratio of EC50 for cytotoxicity against African green monkey Vero cells to EC50 for antileishmanial activity against Leishmania major promastigotes. In kind it is toxicity, cell-based. Conditions: read-out: Ratio EC50.
The nature of data set [17]: Selectivity index, ratio of IC50 for cytotoxicity against African green monkey Vero cells to IC50 for antitrypanosomal activity against Trypanosoma cruzi amastigote. The class given is toxicity, cell-based. Conditions: read-out: Ratio IC50.
A short description of data set [18]: Selectivity index, ratio of IC50 for cytotoxicity against African green monkey Vero cells to IC50 for antileishmanial activity against amastigote form of Leishmania donovani. The class given is toxicity, cell-based. The settings on record: read-out: Ratio IC50.
For data set [19], the system named is Leishmania amazonensis. The data set is described as follows: Antileishmanial activity against Leishmania amazonensis promastigotes assessed as parasite growth inhibition. The class given is functional, organism-based.
For data set [20], the system named is Leishmania amazonensis. Briefly: Antileishmanial activity against Leishmania amazonensis amastigotes assessed as parasite growth inhibition. The class given is functional, organism-based.
Data set [21] relates to Trypanosoma cruzi. Briefly: Antitrypanosomal activity against trypomastigote form of Trypanosoma cruzi assessed as reduction in parasite growth. The class given is functional, organism-based.
Data set [22] concerns Leishmania mexicana. The data set is described as follows: Antileishmanial activity against Leishmania mexicana promastigotes assessed as parasite growth inhibition. In kind it is functional, organism-based.
Data set [23] deals with Trypanosoma cruzi. The data set is described as follows: In vivo antitrypanosomal activity against Trypanosoma cruzi infected in mouse assessed as fold reduction in parasitemia measured upto 30 days. The class given is functional. The settings on record: time <= 30 day.
Data set [24] deals with Trypanosoma cruzi. The data set is described as follows: In vivo antitrypanosomal activity against Trypanosoma cruzi infected in mouse assessed as survival rate measured upto 50 days relative to control. In kind it is functional. Conditions: time <= 50 day.
The test system of data set [25] is Leishmania amazonensis. Briefly: Antileishmanial activity against Leishmania amazonensis intracellular amastigotes assessed as parasite growth inhibition. The class given is functional, organism-based.
Data set [26] can be described thus: Selectivity index, ratio of CC50 for cytotoxicity against mouse J774.G8 cells to IC50 for antileishmanial activity against Leishmania amazonensis promastigotes. The settings on record: read-out: Ratio CC50/IC50. In kind it is toxicity, cell-based.
Data set [27] deals with Trypanosoma brucei. Briefly: In vivo antitrypanosomal activity against Trypanosoma brucei infected in mouse assessed as cured animal rate at 10 mg/kg administered once daily for 7 days relative to control. In kind it is functional. The settings on record: time 7 day.
The nature of data set [28]: Inhibition of Trypanosoma brucei CLK1.
The test system of data set [29] is Trypanosoma brucei rhodesiense. The data set is described as follows: Antitrypanosomal activity against bloodstream form of Trypanosoma brucei rhodesiense assessed as parasite growth inhibition. The class given is functional, organism-based.
Data set [30] is described as follows: Selectivity index, ratio of IC50 for cytotoxicity against rat L6 cells to IC50 for antitrypanosomal activity against bloodstream form of Trypanosoma brucei rhodesiense. The class given is toxicity, cell-based. Conditions: read-out: Ratio IC50.
Data set [31] has as its system Plasmodium berghei. The data set is described as follows: In vivo antimalarial activity against GFP-transfected Plasmodium berghei ANKA infected in NMRI mouse assessed as reduction in parasitemia at 50 mg/kg/day, ip administered for 4 consecutive days relative to control. In kind it is functional.
The subject of data set [32] is Plasmodium berghei. The data set is described as follows: In vivo antimalarial activity against GFP-transfected Plasmodium berghei ANKA infected in NMRI mouse assessed as reduction of parasitaemia at 100 mg/kg/day, po for 4 days relative to control. The class given is functional. Conditions: 96 h, time 4 day.
The subject of data set [33] is Trypanosoma cruzi. Briefly: In vivo antitrypanosomal activity against Trypanosoma cruzi infected in mouse assessed as survival rate measured upto 30 days relative to control. In kind it is functional. The settings on record: time <= 30 day.
A short description of data set [34]: Selectivity index, ratio of CC50 for cytotoxicity against rat L6 cells to IC50 for antitrypanosomal activity against bloodstream form of Trypanosoma brucei rhodesiense. The class given is toxicity, cell-based. The settings on record: read-out: Ratio CC50/IC50.
Data set [35] in a line: Selectivity index, ratio of CC50 for cytotoxicity against rat L6 cells to IC50 for […] activity against amastigote form of Leishmania donovani. In kind it is toxicity, cell-based. Conditions: read-out: Ratio CC50/IC50.
The test system of data set [36] is Leishmania donovani. The data set is described as follows: Antileishmanial activity against Leishmania donovani intracellular amastigotes assessed as parasite growth inhibition. The class given is functional, organism-based.
In data set [37] the test system is Trypanosoma brucei brucei. The data set is described as follows: Antitrypanosomal activity against bloodstream form of Trypanosoma brucei brucei assessed as reduction in parasite growth. In kind it is functional, organism-based.
Data set [38] is described as follows: Selectivity index, ratio of CC50 for cytotoxicity against HEK293T cells to EC50 for antitrypanosomal activity against bloodstream form of Trypanosoma brucei brucei. The class given is toxicity, cell-based. The settings on record: human, read-out: Ratio CC50/EC50.
Data set [39] in a line: Selectivity index, ratio of CC50 for cytotoxicity against human HepG2 cells to EC50 for antitrypanosomal activity against bloodstream form of Trypanosoma brucei brucei. In kind it is toxicity, cell-based. The settings on record: read-out: Ratio CC50/EC50.
Data set [40] has as its system Trypanosoma cruzi (intracellular amastigotes). Briefly: Antiparasitic activity against Trypanosoma cruzi intracellular amastigotes assessed as reduction in cell viability at 50 uM relative to control.
Data set [41] has the same test system. Described as above. The source holds these as a separate data set.

Structures are written as SMILES.

The term EC50 denotes the midpoint of the concentration-response curve. `COc1c(O)cc2oc3cc(O)c(CC=C(C)C)c(O)c3c(=O)c2c1CC=C(C)C` [MANGOSTIN]: the EC50 is 8.9 µM in data set [1], 7.9 µM in data set [2] and 8 µM in data set [3]. Besides, the selectivity ratio in [4] came to 0.95; in data set [5], 0.84; in [6], 0.93.
For the compound `Cn1c2nc3ccccc3c-2cc2ccccc21` [NEOCRYPTOLEPINE], the results for the EC50 in [7], in [8] and in data set [9] were 49.5 µM, 2 µM and 2.2 µM, respectively.
In the case of `C/C=C/[C@]1(C)C[C@@](/C=C(\C)C[C@@H](CC)CC/C=C/CC)(CC)OO1`, a half-maximal response in data set [10] (EC50) required 5 µM.
For the compound `CCOC1C[C@H](CCCCOCc2ccccc2)O[C@H](Cn2cc([C@@H]3CCC[C@H](CCCCOCc4ccccc4)O3)nn2)C1` (stereo not given in full), the EC50 in [11] was 12.7 µM; in data set [12] it was 15.3 µM; in data set [13], 5.1 µM. The results for the selectivity ratio in data set [14], in data set [15] and in data set [16] were 100, 39 and 33, respectively.
In the case of `C/C1=C/C(=O)O[C@H](C(C)(C)C)CCC[C@H](O)CCC[C@H](O)CCC[C@H](O)CCC[C@@H](O)C[C@@H](O)C[C@H](O)CCC[C@@H](O)CCC[C@@H](O)C[C@@H](O)CCCCC1`, the concentration giving a half-maximal response (EC50) in data set [7] worked out at 3 µM; in [1] it was 6.5 µM. Besides, the selectivity ratio in [17] was determined as 2; in data set [18], 1.
Regarding `CC(C)[C@@H](C)/C=C/[C@@H](C)[C@H]1CC[C@@H]2[C@]1(C)CC[C@H]1[C@]23C=C[C@]2(C[C@@H](O)CC[C@]12C)OO3` [ERGOSTEROL PEROXIDE], the EC50 in data set [11] is 16.8 µM; in data set [19], 13.9 µM; in [20], 4 µM.
Regarding `C=C1C(=O)O[C@@H]2[C@H]1CC[C@H](C)[C@]1(CCC(=O)O1)[C@@]2(C)O` [PSILOSTACHYIN A], the EC50 in data set [11] was found to be 4.3 µM; in data set [21], 12.5 µM; in data set [22], 0.42 µM. For the same compound, the “fold change (FC)” value in [23] was 1.5. Moreover, the Survival in [24] is listed as 100%.
Regarding `C=C1CC[C@@H](OC(C)=O)[C@H]2CC=C3[C@](C)(CC[C@]3(O)C(C)C)C[C@]12O`, the EC50 in [19] turned out to be 5.5 µM; in data set [25] it was 18 µM. Further, in [26], the selectivity ratio turned out to be 93.
What is called IC50 is the concentration that inhibits the measured activity by half. As to `COc1cc(O)c2c(c1)[C@H]1O[C@@H]1C[C@H](O)[C@H](O)C(=O)/C=C\C[C@H](C)OC2=O` [HYPOTHEMYCIN], the EC50 in data set [2] stood at 0.17 µM. The Activity in data set [27] is reported as 33%. The compound further showed a 50% inhibitory concentration (IC50) in data set [28] of 0.15 µM.
As usually defined, the inhibition in vivo is the drop in the measured response relative to a control, in per cent. As to `O=C(O)c1ccc2c(n1)C(=O)C1=C(C2=O)S(=O)(=O)CCN1` [ACIDIATHIAZONE A], the EC50 in [29] was 3.1 µM. The selectivity ratio in data set [30] is 50. Also, in data set [31], the inhibition in vivo at 50 mg/kg/day was found to be 85%. Besides, the inhibition in vivo at 100 mg/kg/day in data set [32] turned out to be 45%.
Take `C=C1C(=O)O[C@@H]2[C@H]1CC[C@H](C)[C@@H]1CCC(=O)O[C@@]21C`: the concentration giving a half-maximal response (EC50) turned out to be 2.3 µM in data set [11], 3.4 µM in data set [1], 4.5 µM in data set [22] and 5.7 µM in data set [19]. For the same compound, the “fold change (FC)” value in data set [23] amounted to 2. In addition, in [33], the Survival is recorded as 20%.
`NC1=N[C@]2([C@H](O)N1)[C@@H](Cl)[C@H](CCl)[C@H]1CN3C(=O)c4cc(Br)c(Br)n4[C@@H]4NC(N)=N[C@@]43[C@@H]12`: the EC50 was found to be 0.8 µM in data set [29], 1.9 µM in data set [7] and 120 µM in data set [1]. Besides, the selectivity ratio in [34] was determined as 10; in [35] it was 4.
As to `C=C(C)[C@H]1[C@H]2[C@@H](OC(C)=O)C[C@@H](C)[C@@H]3C(OC)C=C(C)[C@@]213` (stereo not given in full), the EC50 in [36] was found to be 5 µM.
On to `C=C1CO[C@H]2/C=C(\C)CC[C@@H]3O[C@@]3(C)CC/C=C(\C)CC[C@@]12O`, for which the half-maximal effective concentration (EC50) in data set [37] stood at 5.3 µM. For the same compound, the selectivity ratio in [38] and in data set [39] was above 20 in each case. Further, the Activity in data set [40] and in [41] was 15.2% each time.
